Measured values: patent US9708314B2, “Heterocyclic amide compound” (NISSAN CHEMICAL INDUSTRIES, LTD., priority 2013, dated 2017)

Key:
[1] = test system: Beta vulgaris ssp. vulgaris; assay: Test Example 4: effect on crop by application to foliage (diluvial soil, plastic box); assay type: in vivo
How it was run: (§1)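 Emulsion-formulated compound, diluted to a predetermined g/ha dose, applied by small sprayer to leaves and stems of 14-day-old seedlings grown in sterilized diluvial soil. Effect rated on 0–5 herbicidal-ratio scale three weeks on.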

Zea mays = assay: as above; assay type: in vivo
How it was run: as §1

Brassica campestris L. = assay: as above; assay type: in vivo
How it was run: as §1

[2] = test system: directly sowed Oryza sativa; assay: as above; assay type: in vivo
How it was run: as §1

Glycine max = assay: as above; assay type: in vivo
How it was run: as §1

Triticum aestivum = assay: as above; assay type: in vivo
How it was run: as §1

[3] = test system: directly sowed Oryza sativa; assay: Test Example 3: effect on crop by application to foliage (Wagner pot, water depth 0.1-0.5 cm); assay type: in vivo; settings: Nineteenth Table, application herbicide amount 320 g/ha; for b (effect on crop grade): application to foliage
How it was run: (§2)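 Wagner pot foliar test: sow, grow 14 d (25–30 °C), spray diluted emulsion at set g/ha, score after 3 wk; 0 ≤5%, 5 ≥90% herbicidal ratio.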

Galium spurium = assay: Test Example 4: herbicidal effect by application to foliage (diluvial soil, plastic box); assay type: in vivo
How it was run: as §1

[4] = test system: Echinochloa crus-galli var. crus-galli; assay: as above; assay type: in vivo
How it was run: as §1

Avena fatua = assay: as above; assay type: in vivo
How it was run: as §1

Digitaria ciliaris = assay: as above; assay type: in vivo
How it was run: as §1

Alopecurus myosuroides = assay: as above; assay type: in vivo
How it was run: as §1

Veronica persica = assay: as above; assay type: in vivo
How it was run: as §1

Apera spica-venti. = assay: as above; assay type: in vivo
How it was run: as §1

Chenopodium album = assay: as above; assay type: in vivo
How it was run: as §1

Stellaria media = assay: as above; assay type: in vivo
How it was run: as §1

Setaria viridis = assay: as above; assay type: in vivo
How it was run: as §1

Abutilon theophrasti = assay: as above; assay type: in vivo
How it was run: as §1

Lolium multiflorum Lam. = assay: as above; assay type: in vivo
How it was run: as §1

Amaranthus retroflexus = assay: as above; assay type: in vivo
How it was run: as §1

[5] = test system: Echinochloa crus-galli var. crus-galli; assay: Test Example 3: herbicidal effect by application to foliage (Wagner pot, water depth 0.1-0.5 cm); assay type: in vivo; settings: Nineteenth Table, application herbicide amount 320 g/ha; for H (herbicidal effect grade): application to foliage
How it was run: as §2

Leptochloa chinensis = assay: as above; assay type: in vivo; settings: Nineteenth Table, application herbicide amount 320 g/ha; for D (herbicidal effect grade): application to foliage
How it was run: as §2

Cyperus difformis = assay: as above; assay type: in vivo; settings: Nineteenth Table, application herbicide amount 320 g/ha; for E (herbicidal effect grade): application to foliage
How it was run: as §2

[6] = application to foliage, application herbicide amount 320 g/ha
[7] = Application herbicide amount 320 g/ha, foliage application
[8] = application to foliage, 320 g/ha

Structure (SMILES): Cc1nnc(NC(=O)c2ccc(C(F)(F)F)n3c(Cl)nnc23)o1 [1-013, 3-Chloro-N-(5-methyl-1,3,4-oxadiazol-2-yl)-5-(trifluoromethyl)-[1,2,4]triazolo[4,3-a]pyridine-8-carboxamide]
- f (Beta vulgaris ssp. vulgaris) effect on crop [1, 6]: 3 (Herbicidal ratio of 40% or more and less than 70%)
- b (Zea mays) effect on crop (Zea mays; [6]): 0 (Herbicidal ratio of 5% or less (almost no effect))
- g (Brassica campestris L.) effect on crop (Brassica campestris L.; [6]): 0 (Herbicidal ratio of 5% or less (almost no effect))
- d (directly sowed Oryza sativa) effect on crop [2, 6]: 0 (Herbicidal ratio of 5% or less (almost no effect))
- c (Glycine max) effect on crop (Glycine max; [6]): 0 (Herbicidal ratio of 5% or less (almost no effect))
- e (Triticum aestivum) effect on crop (Triticum aestivum; [6]): 1 (Herbicidal ratio of 5% or more and less than 20%)
- b (directly sowed Oryza sativa) effect on crop grade [3]: 0 (Herbicidal ratio of 5% or less (almost no effect))
- Q (Galium spurium) herbicidal effect (Galium spurium; [6]): 1 (Herbicidal ratio of 5% or more and less than 20%)
- H (Echinochloa crus-galli var. crus-galli) herbicidal effect [4, 6]: 4 (Herbicidal ratio of 70% or more and less than 90%)
- I (Avena fatua) herbicidal effect (Avena fatua; [6]): 0 (Herbicidal ratio of 5% or less (almost no effect))
- F (Digitaria ciliaris) herbicidal effect (Digitaria ciliaris; [6]): 3 (Herbicidal ratio of 40% or more and less than 70%)
- J (Alopecurus myosuroides) herbicidal effect (Alopecurus myosuroides; [6]): 1 (Herbicidal ratio of 5% or more and less than 20%)
- R (Veronica persica) herbicidal effect (Veronica persica; [6]): 3 (Herbicidal ratio of 40% or more and less than 70%)
- L (Apera spica-venti.) herbicidal effect (Apera spica-venti.; [6]): 0 (Herbicidal ratio of 5% or less (almost no effect))
- O (Chenopodium album) herbicidal effect (Chenopodium album; [6]): 5 (Herbicidal ratio of 90% or more (almost completely withered))
- P (Stellaria media) herbicidal effect (Stellaria media; [6]): 4 (Herbicidal ratio of 70% or more and less than 90%)
- G (Setaria viridis) herbicidal effect (Setaria viridis; [6]): 1 (Herbicidal ratio of 5% or more and less than 20%)
- M (Abutilon theophrasti) herbicidal effect (Abutilon theophrasti; [6]): 3 (Herbicidal ratio of 40% or more and less than 70%)
- K (Lolium multiflorum Lam.) herbicidal effect (Lolium multiflorum Lam.; [6]): 1 (Herbicidal ratio of 5% or more and less than 20%)
- N (Amaranthus retroflexus) herbicidal effect (Amaranthus retroflexus; [6]): 3 (Herbicidal ratio of 40% or more and less than 70%)
- melting point: 238 to 241 °C
- H (Echinochloa crus-galli var. crus-galli) herbicidal ratio grade [5]: 3 (Herbicidal ratio of 40% or more and less than 70%)
- D (Leptochloa chinensis) herbicidal ratio grade (Leptochloa chinensis): 4 (Herbicidal ratio of 70% or more and less than 90%)
- E (Cyperus difformis) herbicidal ratio grade (Cyperus difformis): 3 (Herbicidal ratio of 40% or more and less than 70%)

Structure (SMILES): CC(C)c1nnc2c(C(=O)Nc3nnnn3C)ccc(Cl)n12 [2-004, 5-Chloro-3-isopropyl-N-(1-methyl-1H-tetrazol-5-yl)-[1,2,4]triazolo[4,3-a]pyridine-8-carboxamide]
- melting point: 189 to 190 °C

Structure (SMILES): Cc1nnc(NC(=O)c2ccc(C(F)(F)F)n3c(SCC#N)nnc23)o1 [1-117]
- f (Beta vulgaris ssp. vulgaris) effect on crop grade [1, 7]: 3 (Herbicidal ratio of 40% or more and less than 70%)
- c (Zea mays) effect on crop grade (Zea mays; [7]): 0 (Herbicidal ratio of 5% or less (almost no effect))
- g (Brassica campestris L.) effect on crop grade (Brassica campestris L.; [7]): 1 (Herbicidal ratio of 5% or more and less than 20%)
- b (directly sowed Oryza sativa) effect on crop grade [2, 7]: 0 (Herbicidal ratio of 5% or less (almost no effect))
- d (Glycine max) effect on crop grade (Glycine max; [7]): 3 (Herbicidal ratio of 40% or more and less than 70%)
- e (Triticum aestivum) effect on crop grade (Triticum aestivum; [7]): 0 (Herbicidal ratio of 5% or less (almost no effect))
- b (effect on crop grade) [3]: 0 (Herbicidal ratio of 5% or less (almost no effect))
- Q (Galium spurium) herbicidal effect grade (Galium spurium; [7]): 1 (Herbicidal ratio of 5% or more and less than 20%)
- H (Echinochloa crus-galli var. crus-galli) herbicidal effect grade [4, 7]: 4 (Herbicidal ratio of 70% or more and less than 90%)
- I (Avena fatua) herbicidal effect grade (Avena fatua; [7]): 0 (Herbicidal ratio of 5% or less (almost no effect))
- F (Digitaria ciliaris) herbicidal effect grade (Digitaria ciliaris; [7]): 1 (Herbicidal ratio of 5% or more and less than 20%)
- J (Alopecurus myosuroides) herbicidal effect grade (Alopecurus myosuroides; [7]): 0 (Herbicidal ratio of 5% or less (almost no effect))
- R (Veronica persica) herbicidal effect grade (Veronica persica; [7]): 3 (Herbicidal ratio of 40% or more and less than 70%)
- L (Apera spica-venti.) herbicidal effect grade (Apera spica-venti.; [7]): 0 (Herbicidal ratio of 5% or less (almost no effect))
- O (Chenopodium album) herbicidal effect grade (Chenopodium album; [7]): 5 (Herbicidal ratio of 90% or more (almost completely withered))
- P (Stellaria media) herbicidal effect grade (Stellaria media; [7]): 3 (Herbicidal ratio of 40% or more and less than 70%)
- G (Setaria viridis) herbicidal effect grade (Setaria viridis; [7]): 1 (Herbicidal ratio of 5% or more and less than 20%)
- M (Abutilon theophrasti) herbicidal effect grade (Abutilon theophrasti; [7]): 3 (Herbicidal ratio of 40% or more and less than 70%)
- K (Lolium multiflorum Lam.) herbicidal effect grade (Lolium multiflorum Lam.; [7]): 0 (Herbicidal ratio of 5% or less (almost no effect))
- N (Amaranthus retroflexus) herbicidal effect grade (Amaranthus retroflexus; [7]): 3 (Herbicidal ratio of 40% or more and less than 70%)
- H (herbicidal effect grade) [5]: 4 (Herbicidal ratio of 70% or more and less than 90%)
- D (herbicidal effect grade) (Leptochloa chinensis): 4 (Herbicidal ratio of 70% or more and less than 90%)
- E (herbicidal effect grade) (Cyperus difformis): 2 (Herbicidal ratio of 20% or more and less than 40%)

Structure (SMILES): Cc1nonc1NC(=O)c1ccc(C(F)(F)F)n2c(C(C)C)nnc12 [3-001, 3-Isopropyl-N-(4-methyl-1,2,5-oxadiazol-3-yl)-5-(trifluoromethyl)-[1,2,4]triazolo[4,3-a]pyridine-8-carboxamide]
- melting point: 185 to 186 °C

Structure (SMILES): CCn1nc2c(C(=O)Nc3nnc(C)o3)ccc(C(F)(F)F)n2c1=O [6-003]
- effect on crop, f (Beta vulgaris ssp. vulgaris) [1, 8]: 1 (Herbicidal ratio of 5% or more and less than 20%)
- effect on crop, b (Zea mays) (Zea mays; [8]): 0 (Herbicidal ratio of 5% or less (almost no effect))
- effect on crop, g (Brassica campestris L.) (Brassica campestris L.; [8]): 0 (Herbicidal ratio of 5% or less (almost no effect))
- effect on crop, d (directly sowed Oryza sativa) [2, 8]: 0 (Herbicidal ratio of 5% or less (almost no effect))
- effect on crop, c (Glycine max) (Glycine max; [8]): 0 (Herbicidal ratio of 5% or less (almost no effect))
- effect on crop, e (Triticum aestivum) (Triticum aestivum; [8]): 0 (Herbicidal ratio of 5% or less (almost no effect))
- b (effect on crop grade) [3]: 0 (Herbicidal ratio of 5% or less (almost no effect))
- herbicidal effect, Q (Galium spurium) (Galium spurium; [8]): 1 (Herbicidal ratio of 5% or more and less than 20%)
- herbicidal effect, H (Echinochloa crus-galli var. crus-galli) [4, 8]: 3 (Herbicidal ratio of 40% or more and less than 70%)
- herbicidal effect, I (Avena fatua) (Avena fatua; [8]): 0 (Herbicidal ratio of 5% or less (almost no effect))
- herbicidal effect, F (Digitaria ciliaris) (Digitaria ciliaris; [8]): 4 (Herbicidal ratio of 70% or more and less than 90%)
- herbicidal effect, J (Alopecurus myosuroides) (Alopecurus myosuroides; [8]): 0 (Herbicidal ratio of 5% or less (almost no effect))
- herbicidal effect, R (Veronica persica) (Veronica persica; [8]): 1 (Herbicidal ratio of 5% or more and less than 20%)
- herbicidal effect, L (Apera spica-venti.) (Apera spica-venti.; [8]): 0 (Herbicidal ratio of 5% or less (almost no effect))
- herbicidal effect, O (Chenopodium album) (Chenopodium album; [8]): 3 (Herbicidal ratio of 40% or more and less than 70%)
- herbicidal effect, P (Stellaria media) (Stellaria media; [8]): 4 (Herbicidal ratio of 70% or more and less than 90%)
- herbicidal effect, G (Setaria viridis) (Setaria viridis; [8]): 3 (Herbicidal ratio of 40% or more and less than 70%)
- herbicidal effect, M (Abutilon theophrasti) (Abutilon theophrasti; [8]): 4 (Herbicidal ratio of 70% or more and less than 90%)
- herbicidal effect, K (Lolium multiflorum Lam.) (Lolium multiflorum Lam.; [8]): 0 (Herbicidal ratio of 5% or less (almost no effect))
- herbicidal effect, N (Amaranthus retroflexus) (Amaranthus retroflexus; [8]): 2 (Herbicidal ratio of 20% or more and less than 40%)
- H (herbicidal effect grade) [5]: 1 (Herbicidal ratio of 5% or more and less than 20%)
- D (herbicidal effect grade) (Leptochloa chinensis): 5 (Herbicidal ratio of 90% or more (almost completely withered))
- E (herbicidal effect grade) (Cyperus difformis): 0 (Herbicidal ratio of 5% or less (almost no effect))
